Assays:
[1] = target: T1, Glutamate NMDA receptor (Rattus norvegicus) (UniProt P35439+Q00959+Q00960+Q00961+Q62645+Q8VHN2+Q9R1M7); assay: Ability to displace [3H]CPP from N-methyl-D-aspartate glutamate receptor in rat brain membrane was evaluated at 10e-4 M; type: cell membranes
Glutamate NMDA receptor [2] = assay: Ability to displace [3H]CPP from NMDA receptor in rat brain membrane; type: cell membranes
Glutamate NMDA receptor [3] = assay: Displacement of [3H]CPP from N-methyl-D-aspartate glutamate receptor in rat brain membrane; type: cell membranes
[4] = target: T1, Glutamate NMDA receptor (Rattus norvegicus); assay: Ability to displace [3H]CPP from NMDA receptor in rat brain membrane was evaluated at 10e-4 M; type: cell membranes
Glutamate NMDA receptor [5] = assay: Compound was evaluated for its ability to displace [3H]Glu/[3H]-AP5 from rat brain membrane; type: tissue-based

SMILES | IC50 (Glutamate NMDA receptor [2]) | IC50 (Glutamate NMDA receptor [3]) | further results
O=C(O)C1NCCc2ccc(CCP(=O)(O)O)cc21 (configuration not stated) | – | – | inhibition [1]: 22%
O=C(O)C1Cc2c(CCP(=O)(O)O)cccc2CN1 (configuration not stated) | 0.27 µM | – | –
O=C(O)C1NCCc2cc(CP(=O)(O)O)ccc21 (configuration not stated) | – | 61 µM | –
O=C(O)C1CC(CCP(=O)(O)O)C2CCCCC2N1 (configuration not stated) | 100 µM | – | –
NC(C(=O)O)c1ccc(CCP(=O)(O)O)cc1 (configuration not stated) | > 100 µM | – | –
O=C(O)C1CN(Cc2ccccc2P(=O)(O)O)CCN1 (configuration not stated) | – | > 100 µM | –
N[C@@H](CC(=O)O)C(=O)O [ASPARTIC ACID] | – | 10 µM | –
O=C(O)C1Cc2ccc(CP(=O)(O)O)cc2CN1 (configuration not stated) | – | – | inhibition [4]: 0%
NC(C[S+]([O-])CP(=O)(O)O)C(=O)O (configuration not stated) | 0.14 µM | – | –
N[C@H](CC(=O)O)C(=O)O [D-ASPARTATE] | – | 10 µM | –
NC(C#CP(=O)(O)O)C(=O)O (configuration not stated) | 0.45 µM | – | –
NC(C(=O)O)c1ccc(CP(=O)(O)O)cc1Br (configuration not stated) | 24 µM | – | –
O=C(O)C1NCCC2CCC(P(=O)(O)O)CC21 (configuration not stated) | – | 5.6 µM | –
NC(Cc1cccc(CCP(=O)(O)O)c1)C(=O)O (configuration not stated) | > 100 µM | – | –
Cc1o[nH]c(=O)c1C(N)C(=O)O (configuration not stated) | – | – | IC50 (Glutamate NMDA receptor [5]): 110 µM
O=C1CN(CCCP(=O)(O)O)CC(C(=O)O)N1 (configuration not stated) | – | 30 µM | –
CC([C@H]1CCN[C@H](C(=O)O)C1)P(=O)(O)O (some centres not stated) | – | 0.8 µM | –
O=C(O)CNCc1ccccc1CP(=O)(O)O | > 100 µM | – | –
O=C(O)c1cccnc1C(=O)O [QUINOLINIC ACID] | – | – | IC50 (Glutamate NMDA receptor [5]): 100 µM
O=C(O)C1CC(CP(=O)(O)O)C2CCCCC2N1 (configuration not stated) | 9.2 µM | – | –
N[C@H](C(=O)O)[C@@H]1C[C@@H]1C(=O)O | – | < 0.1 µM | –

SMILES | IC50 (Glutamate NMDA receptor [2]) | IC50 (Glutamate NMDA receptor [3]) | further results
O=C(O)CNCc1ccc(CP(=O)(O)O)cc1 | – | 5.2 µM | –
NC(Cc1ccccc1CP(=O)(O)O)C(=O)O (configuration not stated) | 8.4 µM | – | –
NC(CCCCC(N)C(=O)O)C(=O)O (configuration not stated) | – | > 100 µM | –
O=C(O)CCCN1CCN[C@@H](C(=O)O)C1 | 0.79 µM | – | –
NC(C(=O)O)c1cccc(C(=O)O)c1 (configuration not stated) | – | 25 µM | –
NC(C(=O)O)c1ccc(P(=O)(O)O)cc1 (configuration not stated) | – | > 100 µM | –
NC(C/C=C/P(=O)(O)O)C(=O)O (configuration not stated) | > 10 µM | – | –
NC(CCP(=O)(O)O)C(=O)O (configuration not stated) | – | > 100 µM | –
NC(Cc1cccc(C(Br)P(=O)(O)O)c1)C(=O)O (configuration not stated) | 50 µM | – | –
O=C(O)C1NCCc2ccc(P(=O)(O)O)cc21 (configuration not stated) | 2.7 µM | – | –
N[C@@H](CNCP(=O)(O)O)C(=O)O | – | 4.3 µM | –
NC(Cc1ccc(P(=O)(O)O)cc1)C(=O)O (configuration not stated) | > 100 µM | – | inhibition [1]: 10%
NC(Cc1ccc(CP(=O)(O)O)cc1)C(=O)O (configuration not stated) | > 100 µM | – | inhibition [1]: 1%
NC(C(=O)O)c1ccc(CP(=O)(O)O)cc1 (configuration not stated) | 0.99 µM | – | –
O=C(O)C1CN(Cc2ccccc2CP(=O)(O)O)CCN1 (configuration not stated) | – | > 100 µM | –
NC(C(=O)O)c1ccc(CP(=O)(O)O)o1 (configuration not stated) | 5.9 µM | – | –
O=C(O)C1Cc2ccc(P(=O)(O)O)cc2CN1 (configuration not stated) | – | – | inhibition [4]: 0%
O=C(O)[C@H]1CCCN[C@@H]1C(=O)O | – | – | IC50 (Glutamate NMDA receptor [5]): 10 µM
N[C@H](C(=O)O)[C@H]1C[C@H]1C(=O)O | – | 10 µM | –
O=C(O)C1NCCc2ccc(CP(=O)(O)O)cc21 (configuration not stated) | – | 37.2 µM | –
NC(C(=O)O)c1cccc(CCP(=O)(O)O)c1 (configuration not stated) | > 100 µM | – | inhibition [4]: 35%

SMILES | IC50 (Glutamate NMDA receptor [2]) | IC50 (Glutamate NMDA receptor [3]) | further results
NC(CCCCCP(=O)(O)O)C(=O)O (configuration not stated) [AP-7] | – | 0.77 µM | –
Cc1cc(CP(=O)(O)O)cc(C(=O)O)n1 | 10 µM | – | –
NC(C(=O)O)c1ccc(CP(=O)(O)O)c2ccccc12 (configuration not stated) | 74 µM | – | –
C=C(C)[C@@H]1CN[C@@H](C(=O)O)[C@@H]1CC(=O)O | – | – | IC50 (Glutamate NMDA receptor [5]): 100 µM
NC(C(=O)O)c1cc(CP(=O)(O)O)cc(-c2ccccc2)c1 (configuration not stated) | – | 50 µM | –
NC(CCCC(=O)O)C(=O)O (configuration not stated) | 13 µM | – | –
N[C@@]1(C(=O)O)CC[C@H](C(=O)O)C1 | – | 10 µM | –
O=C(O)C1CC(CP(=O)(O)O)c2ccccc2N1 (configuration not stated) | 0.85 µM | – | –
Cc1c(CP(=O)(O)O)ccnc1C(=O)O | – | > 100 µM | –
O=C(O)C1Cc2ccc(CCP(=O)(O)O)cc2CN1 (configuration not stated) | – | – | inhibition [4]: 0%
O=C(O)C1CN(Cc2cccc(P(=O)(O)O)c2)CCN1 (configuration not stated) | 83 µM | – | –
O=C(O)C1Cc2cc(CP(=O)(O)O)ccc2CN1 (configuration not stated) | 4.08 µM | – | –
O=C(O)C1CN(C2CCC(P(=O)(O)O)C2)CCN1 (configuration not stated) | 1.6 µM | – | –
O=C(O)[C@H]1NCCC[C@H]1C(=O)O | – | – | IC50 (Glutamate NMDA receptor [5]): 100 µM
O=P(O)(O)CCCN1CCNCC1 | > 100 µM | – | –
C/C(=C\C(N)C(=O)O)CP(=O)(O)O (configuration not stated) [CGP-37849] | 0.035 µM | – | –
NC(C(=O)O)c1ccc(CP(=O)(O)O)s1 (configuration not stated) | 0.66 µM | – | –
O=C(O)C1CN(CCCP(=O)(O)O)CCN1 (configuration not stated) | 0.082 µM | – | –
NC(CCCP(=O)(O)O)C(=O)O (configuration not stated) | – | 0.28 µM | –
O=C(O)Cc1cccnc1C(=O)O | 10 µM | – | –
NC(C(=O)O)c1cc(=O)[nH]o1 (configuration not stated) | 10 µM | – | –

SMILES | IC50 (Glutamate NMDA receptor [2]) | IC50 (Glutamate NMDA receptor [3]) | further results
NC(Cc1cccc(CP(=O)(O)O)c1)C(=O)O (configuration not stated) | 2.8 µM | 3.3 µM | –
O=C(O)[C@H]1CCN[C@H](C(=O)O)C1 | – | – | IC50 (Glutamate NMDA receptor [5]): 100 µM
Cc1cc(C(N)C(=O)O)c(C)cc1CP(=O)(O)O (configuration not stated) | 21 µM | – | –
O=C(O)CCc1cccc2c1CCNC2C(=O)O (configuration not stated) | – | 14.5 µM | –
O=C(O)[C@H]1CN(C(c2ccccc2)P(=O)(O)O)CCN1 (some centres not stated) | 5.8 µM | > 13.3 µM | –
O=C(O)CNCc1cccc(CP(=O)(O)O)c1 | 2.2 µM | – | –
O=C(O)C1Cc2c(cccc2P(=O)(O)O)CN1 (configuration not stated) | 0.82 µM | – | –
O=C(O)[C@@H]1C[C@H](CP(=O)(O)O)CCN1 [SELFOTEL] | 0.054 µM | – | –
O=C(O)C1NCCc2c1cccc2P(=O)(O)O (configuration not stated) | – | – | inhibition [1]: 0%
NC(Cc1ccccc1P(=O)(O)O)C(=O)O (configuration not stated) | > 100 µM | – | inhibition [4]: 3%
O=C(O)CNC/C=C/CP(=O)(O)O | – | 1.2 µM | –
NC(CCCCP(=O)(O)O)C(=O)O (configuration not stated) | – | 42 µM | –
O=C(O)C1CN(CCCP(=O)(O)O)C(=O)CN1 (configuration not stated) | – | 32 µM | –
O=C(O)CNCc1cccc(P(=O)(O)O)c1 | > 100 µM | – | –
NC(CC(=O)NCP(=O)(O)O)C(=O)O (configuration not stated) | – | 2.8 µM | –
O=C(O)C1Cc2c(cccc2CP(=O)(O)O)CN1 (configuration not stated) | 1.95 µM | – | –
NC(C(=O)O)c1ccc(CCCP(=O)(O)O)cc1 (configuration not stated) | > 100 µM | – | –
NC(C(=O)O)C1CCC(CP(=O)(O)O)CC1 (configuration not stated) | 13 µM | – | –
